Reference: PubChem BioAssay AID1963969 (Molecular Pharmacology Branch, DTP, NCI, 2024)

Test system: 817829-284-R-J1-PDC multi-cell spheroid viability
Assay: Anticancer human tumor 817829-284-R-J1-PDC patient-derived colon adenocarcinoma cell line growth inhibition [PI3K]
Conditions: for IC50: curve of first compound; for viability, T/C: stronger effect = lower value
Excerpt: Combinatorial screen of targeted agents with the PI3K inhibitors inavolisib, alpelisib, duvelisib, and copanlisib in multi-cell type tumor spheroids
A high-throughput screen of multi-cell type tumor spheroids was designed to identify active combinations of targeted small molecules and PI3K pathway inhibitors. Complex spheroids include a stromal component modeled by human endothelial cells (HUVEC) and fibroblasts modeled by human mesenchymal stem cells (MSCs). The concentration ranges selected for each drug and investigational agent were based upon clinically achievable concentrations if the clinical Cmax of the agent was known.
Compounds. The drugs and investigational agents: inavolisib (NSC800729), alpelisib (NSC765974), duvelisib (NSC772469), copanlisib (NSC816437), ipatasertib (NSC767898), afuresertib (NSC778305), talazoparib (NSC767125), sapanisertib (NSC764658), selumetinib (NSC741078), tovorafenib (DAY101, NSC766906), vemurafenib (NSC761431), ravoxertinib (NSC781343), sotorasib (NSC818433), MRTX1133 (NSC 836407), abemaciclib (NSC 768073), palbociclib (NSC758247), venetoclax (NSC 766270), SY5609 (NSC837396), enzalutamide (NSC755605), and darolutamide (NSC825331), were obtained from the National Cancer Institute (NCI) Developmental Therapeutics Program Chemical Repository. The FDA-approved anticancer drug set is available from the NCI Developmental Therapeutics Program. […] The stock solutions were prepared in dimethyl sulfoxide (DMSO, Sigma-Aldrich, St. Louis, MO, cat. D2650) at 800-fold the tested concentration and stored at -70 degrees C prior to their use. All drugs and investigational agents were tested over a range starting from a high concentration at or near the clinical Cmax and decreasing in half-log increments. If the clinical Cmax for an agent had not been determined, the highest concentration tested was 10 microM.
Cell Culture. All cells were maintained in an incubator at 37 degrees C and 5% CO2 with 95% humidity. The PDC lines were cultured according to standard operating procedures established by the NCI PDMR (https://pdmr.cancer.gov/sops/default.htm). All PDCs were thawed and cultured in Matrigel-coated flasks prepared with a working solution of 1X Ham's F-12 nutrient mix, without supplementation (Invitrogen, Waltham, MA, cat. 11765054), 100 U/mL penicillin-streptomycin (Invitrogen, cat. 15140122), and 2.5% Matrigel (Corning Inc., Corning, NY, cat. 354248) for the first three passages. The 354836-022-R-J1-PDC, 475296-252-R-J1-PDC, and 997726-040-R-J2-PDC lines were cultured in 6A media, which includes advanced DMEM/F-12 (Thermo Fisher Scientific, cat. 12634028), 10 mM HEPES (Thermo Fisher Scientific, cat. 15630080), 1X GlutaMAX supplement (Thermo Fisher Scientific, cat. 35050061), 0.1 mg/mL primocin (InvivoGen, San Diego, CA, cat. ant-pm-2), 10% defined fetal bovine serum, heat inactivated (HyClone Laboratories Inc., Logan, UT, cat. SH30070.03HI), 50% L-WRN conditioned media (ATCC, cat. CRL-3276), 1.25 mM N-Acetyl-L-cysteine (Sigma-Aldrich, cat. A9165), 10 mM nicotinamide (Sigma-Aldrich, cat. N0636), 1X B-27 supplement (Thermo Fisher Scientific, cat. 17504044), 1X N-2 supplement (Thermo Fisher Scientific, cat. 17502048), and 10 microM Y-27632 dihydrochloride (Tocris Bioscience, Bristol, United Kingdom, cat. 1254). The 624824-186-R-J2-PDC line was cultured in 6C/Colon 1B media, which includes all 6A media components plus 50 ng/mL human EGF recombinant protein (Thermo Fisher Scientific, cat. PHG0311). […]
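Note: spheroids exposed to agents for seven days before readout.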
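Throughout, for viability, T/C: percent of vehicle DMSO control viability which is 100%.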

CC(C)n1nc(-c2ccc3oc(N)nc3c2)c2c(N)ncnc21 + CC(Nc1ccc2c(c1)OCCn1cc(N3C(=O)OCC3C(F)F)nc1-2)C(N)=O
IC50 (second compound 0.00316 µM): 6.7 nM
IC50 (second compound 0.01 µM): 22.8 nM
IC50 (second compound 0.0316 µM): 8.64 nM
IC50 (second compound 0.1 µM): 4.55 nM
IC50 (second compound 0.316 µM): 4.35 nM
IC50 (second compound 1 µM): < 0.316 nM
viability, T/C (second compound 0.00316 µM, first compound 0.000316 µM): 112%
viability, T/C (second compound 0.00316 µM, first compound 0.001 µM): 51.6%
viability, T/C (second compound 0.00316 µM, first compound 0.00316 µM): 65.3%
viability, T/C (second compound 0.00316 µM, first compound 0.01 µM): 60.2%
viability, T/C (second compound 0.00316 µM, first compound 0.0316 µM): 27.9%
viability, T/C (second compound 0.00316 µM, first compound 0.1 µM): 16.2%
viability, T/C (second compound 0.01 µM, first compound 0.000316 µM): 60.2%
viability, T/C (second compound 0.01 µM, first compound 0.001 µM): 63.8%
viability, T/C (second compound 0.01 µM, first compound 0.00316 µM): 69.5%
viability, T/C (second compound 0.01 µM, first compound 0.01 µM): 68.1%
viability, T/C (second compound 0.01 µM, first compound 0.0316 µM): 43.9%
viability, T/C (second compound 0.01 µM, first compound 0.1 µM): 14.7%
viability, T/C (second compound 0.0316 µM, first compound 0.000316 µM): 114%
viability, T/C (second compound 0.0316 µM, first compound 0.001 µM): 73.1%
viability, T/C (second compound 0.0316 µM, first compound 0.00316 µM): 73.9%
viability, T/C (second compound 0.0316 µM, first compound 0.01 µM): 50.3%
viability, T/C (second compound 0.0316 µM, first compound 0.0316 µM): 28.1%
viability, T/C (second compound 0.0316 µM, first compound 0.1 µM): 12.8%
viability, T/C (second compound 0.1 µM, first compound 0.000316 µM): 59.7%
viability, T/C (second compound 0.1 µM, first compound 0.001 µM): 38.7%
viability, T/C (second compound 0.1 µM, first compound 0.00316 µM): 76.4%
viability, T/C (second compound 0.1 µM, first compound 0.01 µM): 32%
viability, T/C (second compound 0.1 µM, first compound 0.0316 µM): 32.1%
viability, T/C (second compound 0.1 µM, first compound 0.1 µM): 13.8%
viability, T/C (second compound 0.316 µM, first compound 0.000316 µM): 53.7%
viability, T/C (second compound 0.316 µM, first compound 0.001 µM): 68.9%
viability, T/C (second compound 0.316 µM, first compound 0.00316 µM): 48.7%
viability, T/C (second compound 0.316 µM, first compound 0.01 µM): 41.7%
viability, T/C (second compound 0.316 µM, first compound 0.0316 µM): 22.2%
viability, T/C (second compound 0.316 µM, first compound 0.1 µM): 13.8%
viability, T/C (second compound 1 µM, first compound 0.000316 µM): 56.8%
viability, T/C (second compound 1 µM, first compound 0.001 µM): 30.8%
viability, T/C (second compound 1 µM, first compound 0.00316 µM): 38.3%
viability, T/C (second compound 1 µM, first compound 0.01 µM): 27.3%
viability, T/C (second compound 1 µM, first compound 0.0316 µM): 79.8%
viability, T/C (second compound 1 µM, first compound 0.1 µM): 18.4%
